Laboratory results: PubChem BioAssay AID1963965 (Molecular Pharmacology Branch, DTP, NCI, 2024)

Tested on: 996289-038-R-J1-PDC spheroid viability
Assay: Anticancer human tumor 996289-038-R-J1-PDC patient-derived colon adenocarcinoma cell line growth inhibition [PI3K]
Conditions: spheroids with HUVEC and MSC; for IC50: curve of first compound; for viability, T/C: stronger effect = lower value
From the text: Combinatorial screen of targeted agents with the PI3K inhibitors inavolisib, alpelisib, duvelisib, and copanlisib in multi-cell type tumor spheroids
A high-throughput screen of multi-cell type tumor spheroids was designed to identify active combinations of targeted small molecules and PI3K pathway inhibitors. Complex spheroids include a stromal component modeled by human endothelial cells (HUVEC) and fibroblasts modeled by human mesenchymal stem cells (MSCs). The concentration ranges selected for each drug and investigational agent were based upon clinically achievable concentrations if the clinical Cmax of the agent was known.
Compounds. The drugs and investigational agents: inavolisib (NSC800729), alpelisib (NSC765974), duvelisib (NSC772469), copanlisib (NSC816437), ipatasertib (NSC767898), afuresertib (NSC778305), talazoparib (NSC767125), sapanisertib (NSC764658), selumetinib (NSC741078), tovorafenib (DAY101, NSC766906), vemurafenib (NSC761431), ravoxertinib (NSC781343), sotorasib (NSC818433), MRTX1133 (NSC 836407), abemaciclib (NSC 768073), palbociclib (NSC758247), venetoclax (NSC 766270), SY5609 (NSC837396), enzalutamide (NSC755605), and darolutamide (NSC825331), were obtained from the National Cancer Institute (NCI) Developmental Therapeutics Program Chemical Repository. The FDA-approved anticancer drug set is available from the NCI Developmental Therapeutics Program. […] The stock solutions were prepared in dimethyl sulfoxide (DMSO, Sigma-Aldrich, St. Louis, MO, cat. D2650) at 800-fold the tested concentration and stored at -70 degrees C prior to their use. All drugs and investigational agents were tested over a range starting from a high concentration at or near the clinical Cmax and decreasing in half-log increments. If the clinical Cmax for an agent had not been determined, the highest concentration tested was 10 microM.
Cell Culture. All cells were maintained in an incubator at 37 degrees C and 5% CO2 with 95% humidity. The PDC lines were cultured according to standard operating procedures established by the NCI PDMR (https://pdmr.cancer.gov/sops/default.htm). All PDCs were thawed and cultured in Matrigel-coated flasks prepared with a working solution of 1X Ham's F-12 nutrient mix, without supplementation (Invitrogen, Waltham, MA, cat. 11765054), 100 U/mL penicillin-streptomycin (Invitrogen, cat. 15140122), and 2.5% Matrigel (Corning Inc., Corning, NY, cat. 354248) for the first three passages. The 354836-022-R-J1-PDC, 475296-252-R-J1-PDC, and 997726-040-R-J2-PDC lines were cultured in 6A media, which includes advanced DMEM/F-12 (Thermo Fisher Scientific, cat. 12634028), 10 mM HEPES (Thermo Fisher Scientific, cat. 15630080), 1X GlutaMAX supplement (Thermo Fisher Scientific, cat. 35050061), 0.1 mg/mL primocin (InvivoGen, San Diego, CA, cat. ant-pm-2), 10% defined fetal bovine serum, heat inactivated (HyClone Laboratories Inc., Logan, UT, cat. SH30070.03HI), 50% L-WRN conditioned media (ATCC, cat. CRL-3276), 1.25 mM N-Acetyl-L-cysteine (Sigma-Aldrich, cat. A9165), 10 mM nicotinamide (Sigma-Aldrich, cat. N0636), 1X B-27 supplement (Thermo Fisher Scientific, cat. 17504044), 1X N-2 supplement (Thermo Fisher Scientific, cat. 17502048), and 10 microM Y-27632 dihydrochloride (Tocris Bioscience, Bristol, United Kingdom, cat. 1254). The 624824-186-R-J2-PDC line was cultured in 6C/Colon 1B media, which includes all 6A media components plus 50 ng/mL human EGF recombinant protein (Thermo Fisher Scientific, cat. PHG0311). […]
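Also: spheroids exposed to compounds for seven days before viability read.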
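For viability, T/C in this document: luminescence used as a proxy for viable cell amount; percent viability relative to DMSO vehicle control as 100%.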

**Q.** How did the IC50 (second compound 0.00316 µM) turn out when Cn1cnc2c(F)c(Nc3ccc(Br)cc3Cl)c(C(=O)NOCCO)cc21 + CC(Nc1ccc2c(c1)OCCn1cc(N3C(=O)OCC3C(F)F)nc1-2)C(N)=O was run?
**A.** Its IC50 is 285 nM.

**Q.** What about the IC50 (second compound 0.01 µM) of the same compound?
**A.** The IC50 was 339 nM.

**Q.** What about the IC50 (second compound 0.0316 µM) of the same compound?
**A.** The IC50 was 206 nM.

**Q.** What about the IC50 (second compound 0.1 µM) of the same compound?
**A.** Its IC50 is 91.1 nM.

**Q.** And the IC50 (second compound 0.316 µM)?
**A.** Its IC50 is 38.9 nM.

**Q.** And the IC50 (second compound 1 µM)?
**A.** The IC50 was 25.2 nM.

**Q.** And the viability, T/C (second compound 0.00316 µM, first compound 0.00949 µM)?
**A.** The viability, T/C was 100%.

**Q.** What about the viability, T/C (second compound 0.00316 µM, first compound 0.03 µM) of the same compound?
**A.** The viability, T/C was 84.9%.

**Q.** What about the viability, T/C (second compound 0.00316 µM, first compound 0.0949 µM) of the same compound?
**A.** The viability, T/C was 64%.

**Q.** What about the viability, T/C (second compound 0.00316 µM, first compound 0.3 µM) of the same compound?
**A.** The viability, T/C was 51%.

**Q.** What about the viability, T/C (second compound 0.00316 µM, first compound 0.949 µM) of the same compound?
**A.** Its viability, T/C is 35.1%.

**Q.** And the viability, T/C (second compound 0.00316 µM, first compound 3 µM)?
**A.** The viability, T/C was 26.2%.

**Q.** What about the viability, T/C (second compound 0.01 µM, first compound 0.00949 µM) of the same compound?
**A.** The viability, T/C was 95.9%.

**Q.** What about the viability, T/C (second compound 0.01 µM, first compound 0.03 µM) of the same compound?
**A.** The viability, T/C was 74.2%.

**Q.** What about the viability, T/C (second compound 0.01 µM, first compound 0.0949 µM) of the same compound?
**A.** Its viability, T/C is 71.6%.

**Q.** And the viability, T/C (second compound 0.01 µM, first compound 0.3 µM)?
**A.** The viability, T/C was 49.9%.

**Q.** And the viability, T/C (second compound 0.01 µM, first compound 0.949 µM)?
**A.** The viability, T/C was 36.3%.

**Q.** And the viability, T/C (second compound 0.01 µM, first compound 3 µM)?
**A.** Its viability, T/C is 24.7%.

**Q.** And the viability, T/C (second compound 0.0316 µM, first compound 0.00949 µM)?
**A.** The viability, T/C was 95.3%.

**Q.** What about the viability, T/C (second compound 0.0316 µM, first compound 0.03 µM) of the same compound?
**A.** Its viability, T/C is 79.7%.

**Q.** What about the viability, T/C (second compound 0.0316 µM, first compound 0.0949 µM) of the same compound?
**A.** The viability, T/C was 58.6%.

**Q.** What about the viability, T/C (second compound 0.0316 µM, first compound 0.3 µM) of the same compound?
**A.** Its viability, T/C is 44.1%.

**Q.** What about the viability, T/C (second compound 0.0316 µM, first compound 0.949 µM) of the same compound?
**A.** Its viability, T/C is 35.6%.

**Q.** And the viability, T/C (second compound 0.0316 µM, first compound 3 µM)?
**A.** Its viability, T/C is 23.7%.

**Q.** What about the viability, T/C (second compound 0.1 µM, first compound 0.00949 µM) of the same compound?
**A.** The viability, T/C was 84.7%.

**Q.** And the viability, T/C (second compound 0.1 µM, first compound 0.03 µM)?
**A.** The viability, T/C was 69.3%.

**Q.** And the viability, T/C (second compound 0.1 µM, first compound 0.0949 µM)?
**A.** The viability, T/C was 47.3%.

**Q.** What about the viability, T/C (second compound 0.1 µM, first compound 0.3 µM) of the same compound?
**A.** Its viability, T/C is 35%.

**Q.** What about the viability, T/C (second compound 0.1 µM, first compound 0.949 µM) of the same compound?
**A.** Its viability, T/C is 26.7%.

**Q.** What about the viability, T/C (second compound 0.1 µM, first compound 3 µM) of the same compound?
**A.** The viability, T/C was 18.5%.

**Q.** And the viability, T/C (second compound 0.316 µM, first compound 0.00949 µM)?
**A.** The viability, T/C was 60.6%.

**Q.** And the viability, T/C (second compound 0.316 µM, first compound 0.03 µM)?
**A.** The viability, T/C was 53.4%.

**Q.** What about the viability, T/C (second compound 0.316 µM, first compound 0.0949 µM) of the same compound?
**A.** The viability, T/C was 41.8%.

**Q.** What about the viability, T/C (second compound 0.316 µM, first compound 0.3 µM) of the same compound?
**A.** The viability, T/C was 31.1%.

**Q.** What about the viability, T/C (second compound 0.316 µM, first compound 0.949 µM) of the same compound?
**A.** The viability, T/C was 24.9%.

**Q.** What about the viability, T/C (second compound 0.316 µM, first compound 3 µM) of the same compound?
**A.** The viability, T/C was 13.7%.

**Q.** And the viability, T/C (second compound 1 µM, first compound 0.00949 µM)?
**A.** Its viability, T/C is 58.7%.

**Q.** What about the viability, T/C (second compound 1 µM, first compound 0.03 µM) of the same compound?
**A.** Its viability, T/C is 48%.

**Q.** What about the viability, T/C (second compound 1 µM, first compound 0.0949 µM) of the same compound?
**A.** The viability, T/C was 38.4%.

**Q.** And the viability, T/C (second compound 1 µM, first compound 0.3 µM)?
**A.** Its viability, T/C is 27.4%.

**Q.** What about the viability, T/C (second compound 1 µM, first compound 0.949 µM) of the same compound?
**A.** Its viability, T/C is 18.9%.

**Q.** What about the viability, T/C (second compound 1 µM, first compound 3 µM) of the same compound?
**A.** The viability, T/C was 11.4%.
